Here are results for four compounds from the supplement of paper PMC10307832.

The first test relates to SK-MES-1. As to the kind of experiment: relative viability (nuclei count vs DMSO), 5 days (fraction); higher = more cells survive. The note with it: first compound 20 µM. The procedure, abridged: (§1)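 Values are medians from duplicate plates. Each reflects relative viability, defined as the nuclei count of treated wells over that of vehicle wells. Lung cancer cell lines in 1536-well plates were pin-tool dosed one day after seeding with one drug alone or with a fixed anchor-drug dose plus five library-drug doses (not always all listed) in √10 steps, then fixed, stained and imaged at 4× after 5 days.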
Regarding `COCC1(CO)C(=O)C2CCN1CC2` (stereo not given) [PRIMA-1MET] + CS(=O)(=O)N1CCN(Cc2cc3nc(-c4cccc5[nH]ncc45)nc(N4CCOCC4)c3s2)CC1 [Pictilisib] (partner 1 µM), the relative viability came to 0.349.

`COCC1(CO)C(=O)C2CCN1CC2` (stereo not given) [PRIMA-1MET] + CCNC(=O)c1noc(-c2cc(C(C)C)c(O)cc2O)c1-c1ccc(CN2CCOCC2)cc1 [Luminespib] (partner 0.01 µM) yielded a relative viability of 0.746.

Consider `COCC1(CO)C(=O)C2CCN1CC2` (stereo not given) [PRIMA-1MET] + CC(=O)c1c(C)c2cnc(Nc3ccc(N4CCNCC4)cn3)nc2n(C2CCCC2)c1=O [Palbociclib] (partner 0.5 µM), for which the relative viability stood at 0.295.

Consider `COCC1(CO)C(=O)C2CCN1CC2` (stereo not given) [PRIMA-1MET] + Cc1nc(Nc2ncc(C(=O)Nc3c(C)cccc3Cl)s2)cc(N2CCN(CCO)CC2)n1 [Dasatinib] (partner 0.075 µM), for which the relative viability was determined as 0.242.

The next test concerns NCI-H1650. Described as above. The note with it: first compound 0.2 µM. The gist of the method:
as §1
Compound `COCC1(CO)C(=O)C2CCN1CC2` (stereo not given) [PRIMA-1MET] + CS(=O)(=O)N1CCN(Cc2cc3nc(-c4cccc5[nH]ncc45)nc(N4CCOCC4)c3s2)CC1 [Pictilisib] (partner 1 µM) showed a relative viability of 0.618.

For the compound `COCC1(CO)C(=O)C2CCN1CC2` (stereo not given) [PRIMA-1MET] + CCNC(=O)c1noc(-c2cc(C(C)C)c(O)cc2O)c1-c1ccc(CN2CCOCC2)cc1 [Luminespib] (partner 0.01 µM), the relative viability turned out to be 0.228.

Regarding `COCC1(CO)C(=O)C2CCN1CC2` (stereo not given) [PRIMA-1MET] + CC(=O)c1c(C)c2cnc(Nc3ccc(N4CCNCC4)cn3)nc2n(C2CCCC2)c1=O [Palbociclib] (partner 0.5 µM), the relative viability came to 0.322.

As for `COCC1(CO)C(=O)C2CCN1CC2` (stereo not given) [PRIMA-1MET] + Cc1nc(Nc2ncc(C(=O)Nc3c(C)cccc3Cl)s2)cc(N2CCN(CCO)CC2)n1 [Dasatinib] (partner 0.075 µM), the relative viability turned out to be 0.341.

The same test, now with this note: first compound 0.6325 µM.
Compound `COCC1(CO)C(=O)C2CCN1CC2` (stereo not given) [PRIMA-1MET] + CS(=O)(=O)N1CCN(Cc2cc3nc(-c4cccc5[nH]ncc45)nc(N4CCOCC4)c3s2)CC1 [Pictilisib] (partner 1 µM) had a relative viability of 0.483.

Consider `COCC1(CO)C(=O)C2CCN1CC2` (stereo not given) [PRIMA-1MET] + CCNC(=O)c1noc(-c2cc(C(C)C)c(O)cc2O)c1-c1ccc(CN2CCOCC2)cc1 [Luminespib] (partner 0.01 µM), for which the relative viability amounted to 0.212.

For the compound `COCC1(CO)C(=O)C2CCN1CC2` (stereo not given) [PRIMA-1MET] + CC(=O)c1c(C)c2cnc(Nc3ccc(N4CCNCC4)cn3)nc2n(C2CCCC2)c1=O [Palbociclib] (partner 0.5 µM), the relative viability amounted to 0.331.

`COCC1(CO)C(=O)C2CCN1CC2` (stereo not given) [PRIMA-1MET] + Cc1nc(Nc2ncc(C(=O)Nc3c(C)cccc3Cl)s2)cc(N2CCN(CCO)CC2)n1 [Dasatinib] (partner 0.075 µM) returned a relative viability of 0.327.

Staying with this test, now noted: first compound 2 µM.
In turn, `COCC1(CO)C(=O)C2CCN1CC2` (stereo not given) [PRIMA-1MET] + CS(=O)(=O)N1CCN(Cc2cc3nc(-c4cccc5[nH]ncc45)nc(N4CCOCC4)c3s2)CC1 [Pictilisib] (partner 1 µM) registered a relative viability of 0.311.

In the case of `COCC1(CO)C(=O)C2CCN1CC2` (stereo not given) [PRIMA-1MET] + CCNC(=O)c1noc(-c2cc(C(C)C)c(O)cc2O)c1-c1ccc(CN2CCOCC2)cc1 [Luminespib] (partner 0.01 µM), the relative viability came out at 0.185.

`COCC1(CO)C(=O)C2CCN1CC2` (stereo not given) [PRIMA-1MET] + CC(=O)c1c(C)c2cnc(Nc3ccc(N4CCNCC4)cn3)nc2n(C2CCCC2)c1=O [Palbociclib] (partner 0.5 µM) returned a relative viability of 0.317.

`COCC1(CO)C(=O)C2CCN1CC2` (stereo not given) [PRIMA-1MET] + Cc1nc(Nc2ncc(C(=O)Nc3c(C)cccc3Cl)s2)cc(N2CCN(CCO)CC2)n1 [Dasatinib] (partner 0.075 µM) registered a relative viability of 0.337.

The same test, now with this note: first compound 6.325 µM.
As to `COCC1(CO)C(=O)C2CCN1CC2` (stereo not given) [PRIMA-1MET] + CS(=O)(=O)N1CCN(Cc2cc3nc(-c4cccc5[nH]ncc45)nc(N4CCOCC4)c3s2)CC1 [Pictilisib] (partner 1 µM), the relative viability stood at 0.527.

With `COCC1(CO)C(=O)C2CCN1CC2` (stereo not given) [PRIMA-1MET] + CCNC(=O)c1noc(-c2cc(C(C)C)c(O)cc2O)c1-c1ccc(CN2CCOCC2)cc1 [Luminespib] (partner 0.01 µM), the relative viability was found to be 0.193.

For the compound `COCC1(CO)C(=O)C2CCN1CC2` (stereo not given) [PRIMA-1MET] + CC(=O)c1c(C)c2cnc(Nc3ccc(N4CCNCC4)cn3)nc2n(C2CCCC2)c1=O [Palbociclib] (partner 0.5 µM), the relative viability is 0.315.

`COCC1(CO)C(=O)C2CCN1CC2` (stereo not given) [PRIMA-1MET] + Cc1nc(Nc2ncc(C(=O)Nc3c(C)cccc3Cl)s2)cc(N2CCN(CCO)CC2)n1 [Dasatinib] (partner 0.075 µM): the relative viability was determined as 0.282.

The same test, now with this note: first compound 20 µM.
In turn, `COCC1(CO)C(=O)C2CCN1CC2` (stereo not given) [PRIMA-1MET] + CS(=O)(=O)N1CCN(Cc2cc3nc(-c4cccc5[nH]ncc45)nc(N4CCOCC4)c3s2)CC1 [Pictilisib] (partner 1 µM) had a relative viability of 0.209.

Take `COCC1(CO)C(=O)C2CCN1CC2` (stereo not given) [PRIMA-1MET] + CCNC(=O)c1noc(-c2cc(C(C)C)c(O)cc2O)c1-c1ccc(CN2CCOCC2)cc1 [Luminespib] (partner 0.01 µM): the relative viability came out at 0.123.

In turn, `COCC1(CO)C(=O)C2CCN1CC2` (stereo not given) [PRIMA-1MET] + CC(=O)c1c(C)c2cnc(Nc3ccc(N4CCNCC4)cn3)nc2n(C2CCCC2)c1=O [Palbociclib] (partner 0.5 µM) returned a relative viability of 0.0802.

`COCC1(CO)C(=O)C2CCN1CC2` (stereo not given) [PRIMA-1MET] + Cc1nc(Nc2ncc(C(=O)Nc3c(C)cccc3Cl)s2)cc(N2CCN(CCO)CC2)n1 [Dasatinib] (partner 0.075 µM): the relative viability amounted to 0.06.

A further test has as its system HARA. The test is described as above. The note with it: first compound 0.2 µM. The procedure, abridged: as §1
In the case of `COCC1(CO)C(=O)C2CCN1CC2` (stereo not given) [PRIMA-1MET] + CS(=O)(=O)N1CCN(Cc2cc3nc(-c4cccc5[nH]ncc45)nc(N4CCOCC4)c3s2)CC1 [Pictilisib] (partner 1 µM), the relative viability was 0.374.
